# Test results as given in patent US4113946A, “Δ^2,3 -1,4-Morpholine-2-carboxylic acid derivatives as antibacterial agents” (Bristol-Myers Company, priority 1977, dated 1978).
# Where two headings read alike, the source gives them in different places.
# Tests used:
# Assay type in all cases: cell-based
# [1] = test system: S. aureus meth.-resist; A15097; assay: M.I.C. by tube dilution, S. aureus meth.-resist A15097; conditions: Staphylococcus aureus, at 10^-3 dil'n, overnight 37° C.
# Str. pyogenes A9604 = assay: M.I.C. by tube dilution, Str. pyogenes A9604; conditions: Streptococcus pyogenes
# Pr. mirabilis A9900 = assay: M.I.C. by tube dilution, Pr. mirabilis A9900; conditions: Proteus mirabilis
# S. aureus Smith A9537 = assay: M.I.C. by tube dilution, S. aureus Smith A9537; conditions: for MIC: Staphylococcus aureus
# K. pneumoniae A15130 = assay: M.I.C. by tube dilution, K. pneumoniae A15130; conditions: Klebsiella pneumoniae
# D. pneumoniae A9585 = assay: M.I.C. by tube dilution, D. pneumoniae A9585; conditions: for MIC: Streptococcus pneumoniae, A9585
# E. coli A9675 = assay: M.I.C. by tube dilution, E. coli A9675; conditions: Escherichia coli
# E. coli Juhl A15119 = assay: M.I.C. by tube dilution, E. coli Juhl A15119; conditions: for MIC: Escherichia coli, JUHLA15119
# Sal. enteritidis A9531 = assay: M.I.C. by tube dilution, Sal. enteritidis A9531; conditions: for MIC: Salmonella enterica, ENTERITIDIS
# Ps. aeruginosa A9843A = assay: microbe, parasite or virus in culture; conditions: Pseudomonas aeruginosa
# S. aureus BX1633-2 A9606 = assay: M.I.C. by tube dilution, S. aureus BX1633-2 A9606; conditions: overnight 37° C.; for MIC: Staphylococcus aureus
# Pr. morganii A15153 = assay: M.I.C. by tube dilution, Pr. morganii A15153; conditions: Morganella morganii
# K. pneumoniae A9977 = assay: M.I.C. by tube dilution, K. pneumoniae A9977; conditions: Klebsiella pneumoniae
# Ser. marcescens A20019 = assay: M.I.C. by tube dilution, Ser. marcescens A20019; conditions: Serratia marcescens
# Ent. cloacae A9657 = assay: M.I.C. by tube dilution, Ent. cloacae A9657; conditions: Enterobacter cloacae, A9657, overnight 37° C.; read-out: M.I.C.
# Ent. cloacae A9659 = assay: M.I.C. by tube dilution, Ent. cloacae A9659; conditions: Enterobacter cloacae, A9659, overnight 37° C.
# [2] = +5% serum, 50% Nutrient Broth - 45% Antibiotic Assay Broth, overnight 37° C., read-out: M.I.C.
# [3] = at 10^-4 dilution, overnight 37° C., read-out: M.I.C.
# [4] = BX16332A9606, at 10^-3 dil'n, read-out: M.I.C.
# [5] = SMITHA9537, Table 9, compound of Ex. No., serum and dilution not given, read-out: M.I.C. S. aureus A9537
# [6] = Table 9, compound of Ex. No., serum not given, read-out: M.I.C. D. pneumoniae A9585
# [7] = Table 9, compound of Ex. No., dilution not given, read-out: M.I.C. E. coli A15119
# [8] = Table 9, compound of Ex. No., dilution not given, read-out: M.I.C. Sal. enteritidis A9531
# [9] = BX16332A9606, at 10^-2 dil'n, read-out: M.I.C.
# [10] = Table 9, compound of Ex. No., dilution not given
MIC (S. aureus Smith A9537; [5]) [mg/L],MIC (D. pneumoniae A9585; [6]) [mg/L],MIC (E. coli Juhl A15119; [7]) [mg/L],MIC (Sal. enteritidis A9531; [8]) [mg/L],Compound,also measured
1,0.5,125,4,"CC1=C(C(=O)O)N2C(=O)[C@@H](NC(=O)Cc3ccccc3)[C@H]2CO1 (relative stereo) [Example 32, 7β-Phenylacetamido-3-methyl-Δ^3-0-2-isocephem-4-carboxylic acid]",–
1,0.25,32,2,"CC1=C(C(=O)O)N2C(=O)[C@@H](NC(=O)Cc3cccs3)[C@H]2CO1 (relative stereo) [Example 33, 7β-(2-Thienylacetamido)-3-methyl-Δ^3-0-2-isocephem-4-carboxylic acid]",–
0.5,0.25,> 125,> 125,"CC1=C(C(=O)O)N2C(=O)[C@@H](NC(=O)Cc3ccccc3O)[C@H]2CO1 (relative stereo) [Example 35, 7β-(o-Hydroxyphenylacetamido)-3-methyl-Δ^3-0-2-isocephem-4-carboxylic acid]",–
4,0.5,125,125,"CC1=C(C(=O)O)N2C(=O)[C@@H](NC(=O)CC#N)[C@H]2CO1 (relative stereo) [Example 36, 7β-[Cyanoacetamido]-3-methyl-Δ^3-0-2-isocephem-4-carboxylicacid]",–
> 8,8,> 125,> 125,"CC1=C(C(=O)O)N2C(=O)[C@@H](NC(=O)c3c(-c4ccccc4Cl)noc3C)[C@H]2CO1 (relative stereo) [Example 39, 7β-[3-(o-chlorophenyl)-5-methyl-isoxazol-4-ylcarboxamido]-3-methyl-Δ^3-0-2-isocephem-4-carboxylic acid]",–
16,4,125,32,"CC1=C(C(=O)O)N2C(=O)[C@@H](NC(=O)C(C(=O)O)c3ccccc3)[C@H]2CO1 (stereo partly drawn) [Example 34, 7β-[α-carboxy-α-phenylacetamido]-3-methyl-Δ^3-0-2-isocephem-4-carboxylic acid]",–
125,32,> 125,> 125,"CCOC(=O)NC1C(=O)N2C(C(=O)O)=C(C)OCC12 (stereo not drawn) [Example 38, 7β-(Ethoxycarboxamido)-3-methyl-Δ^3-0-2-isocephem-4-carboxylic acid]",–

# Continued, compound first:
Compound,MIC (S. aureus Smith A9537; [5]) [mg/L],MIC (D. pneumoniae A9585; [6]) [mg/L],MIC (E. coli Juhl A15119; [7]) [mg/L],MIC (Sal. enteritidis A9531; [8]) [mg/L],also measured
"O=C(COc1ccccc1)N[C@@H]1C(=O)N2C(C(=O)O)=COC[C@H]12 (relative stereo) [BC-L2, potassium 7 β-phenoxyacetamido-Δ^3 -O-2-isocephem-4-carboxylate]",–,–,–,–,"MIC [1]: > 125 mg/L; MIC (Str. pyogenes A9604; [2]): 0.6 mg/L; MIC (Pr. mirabilis A9900; [3]): 63 mg/L; MIC (S. aureus Smith A9537; SMITHA9537, +50% serum, at 10^-4 dilution, overnight 37° C.): 1 mg/L; MIC (S. aureus Smith A9537; SMITHA9537, at 10^-4 dilution, overnight 37° C., read-out: M.I.C.): 1.3 mg/L; MIC (K. pneumoniae A15130): > 125 mg/L; MIC (D. pneumoniae A9585; [2]): 0.6 mg/L; MIC (E. coli A9675): > 125 mg/L; MIC (E. coli Juhl A15119; [3]): 63 mg/L; MIC (Sal. enteritidis A9531): 16 mg/L; MIC (Ps. aeruginosa A9843A): > 125 mg/L; MIC (S. aureus BX1633-2 A9606; BX16332A9606, at 10^-2 dil'n): > 125 mg/L; MIC (S. aureus BX1633-2 A9606; [4]): 2.5 mg/L; MIC (Pr. morganii A15153): > 125 mg/L; MIC (K. pneumoniae A9977): 32 mg/L; MIC (Ser. marcescens A20019): > 125 mg/L"
"CC1=C(C(=O)O)N2C(=O)[C@@H](NC(=O)Cc3ccccc3CN)[C@H]2CO1 (relative stereo) [Example 24, 7β-(2-Aminomethylphenylacetamido)-3-methyl-Δ^3 -O-2-isocephem-4-carboxylic acid]",0.6,0.08,16,> 2.5,–
"COc1cccc(OC)c1C(=O)N[C@@H]1C(=O)N2C(C(=O)O)=C(C)OC[C@H]12 (relative stereo) [Example 26, 7β-(2,6-Dimethoxybenzamido)-3-methyl-Δ^3 -O-2-isocephem-4-carboxylic acid]",> 125,32,> 125,32,–
"CC1=C(C(=O)O)N2C(=O)[C@@H](NC(=O)CNC(=N)Cc3ccccc3)[C@H]2CO1 (relative stereo) [Example 28, 7β-[N-(Phenylacetimidoyl)aminoacetamido]-3-methyl-Δ^3 -O-2-isocephem-4-carboxylic acid]",4,0.5,> 125,125,–
CC1=C(C(=O)O)N2C(=O)[C@@H](NC(=O)NCOc3ccccc3)[C@H]2CO1 (relative stereo) [Example 31],32,16,> 125,> 125,–
"N[C@@H](C(=O)N[C@@H]1C(=O)N2C(C(=O)O)=COC[C@H]12)c1ccccc1 [BC-L6, 7β-(D-α-aminophenylacetamido)-Δ^3 -O-2-isocephem-4-carboxylic acid]",–,–,–,–,"MIC ([1]; read-out: M.I.C.): > 500 mg/L; MIC (Str. pyogenes A9604): 16 mg/L; MIC (Pr. mirabilis A9900): 125 mg/L; MIC (S. aureus Smith A9537; SMITHA9537, +50% serum, at 10^-4 dilution, overnight 37° C., read-out: M.I.C.): 250 mg/L; MIC (S. aureus Smith A9537; SMITHA9537, at 10^-4 dilution, overnight 37° C.): 32 mg/L; MIC (K. pneumoniae A15130): 125 mg/L; MIC (D. pneumoniae A9585): 16 mg/L; MIC (E. coli A9675; [3]): 250 mg/L; MIC (E. coli Juhl A15119): 125 mg/L; MIC (Sal. enteritidis A9531): 32 mg/L; MIC (Ps. aeruginosa A9843A): > 500 mg/L; MIC (S. aureus BX1633-2 A9606; [9]): 500 mg/L; MIC (S. aureus BX1633-2 A9606; BX16332A9606, at 10^-3 dil'n): 125 mg/L; MIC (Pr. morganii A15153; [3]): > 500 mg/L; MIC (K. pneumoniae A9977; [3]): 63 mg/L; MIC (Ser. marcescens A20019; [3]): > 500 mg/L"
"CC1=C(C(=O)O)N2C(=O)[C@@H](NC(=O)[C@H](N)c3ccccc3)[C@H]2SC1 [Cephalexin, cephalexin, reference compound]",–,–,–,–,MIC ([1]; read-out: M.I.C.): 63 mg/L; MIC (Ent. cloacae A9657): 2 mg/L; MIC (E. coli A9675): 32 mg/L; MIC (Sal. enteritidis A9531; [3]): 1 mg/L; MIC (S. aureus BX1633-2 A9606; [9]): 4 mg/L; MIC (S. aureus BX1633-2 A9606; [4]): 4 mg/L; M.I.C. (S. aureus BX1633-2 A9606; at 10^-2 dil'n): 8 meg./ml.; M.I.C. (S. aureus BX1633-2 A9606; at 10^-3 dil'n): 2 meg./ml.; MIC (Ent. cloacae A9659): 125 mg/L
"CC1=C(C(=O)O)N2C(=O)[C@@H](NC(=O)C(NC(=O)NC(=O)c3ccccc3)c3ccccc3)[C@H]2CO1 (stereo partly drawn) [Example 25, 7β-(α-Benzoylureidophenylacetamido)-3-methyl-Δ^3 -O-2-isocephem-4-carboxylic acid]",0.6,0.3,63,8,–
"CC1=C(C(=O)O)N2C(=O)[C@@H](NC(=O)[C@H](O)c3ccccc3)[C@H]2CO1 [Example 27, 7β-(D-α-Hydroxyphenylacetamido)-3-methyl-Δ^3 -O-2-isocephem-4-carboxylic acid]",2,1,16,8,–
"CCCCC(=O)NC1C(=O)N2C(C(=O)O)=C(C)OCC12 (stereo not drawn) [Example 29, 7β-Valeramido-3-methyl-Δ^3 -O-2-isocephem-4-carboxylic acid]",125,125,> 125,> 125,–
"CC1=C(C(=O)O)N2C(=O)C(NC(=O)Cn3ncnn3)C2CO1 (stereo not drawn) [Example 37, 7β-[2-(2H)-tetrazolylacetamido]-3-methyl-Δ^3-0-2-isocephem-4-carboxylic acid]",–,–,–,–,"M.I.C. S. aureus A9537 (S. aureus Smith A9537; Table 9, compound of Ex. No., serum and dilution not given): > 125 µg/mL; M.I.C. D. pneumoniae A9585 (D. pneumoniae A9585; Table 9, compound of Ex. No., serum not given): 125 µg/mL; M.I.C. E. coli A15119 (E. coli Juhl A15119; [10]): > 125 µg/mL; M.I.C. Sal. enteritidis A9531 (Sal. enteritidis A9531; [10]): > 125 µg/mL"
